Measured values: US20100197625A1, “SYNTHETIC LIPOPHILIC INOSITOL GLYCANS FOR TREATMENT OF CANCER AND GLUCOSE-METABOLISM DISORDERS” (priority 2006, published 2010)

Key:
Panc-1 cells = experiment: Lactate production in Panc-1 cells; assay type: cell-based, human; settings: 1 hour incubation in serum free media
Experimental: (§1) Human pancreatic cancer cell lines (Panc-1, MiaPaca2, BXPC3, Aspc 1), human hepatoma cell line (HuH7), human gastric cancer cell lines (AGS, MKN45), human colon cancer cell line (CoCM-1), human mammary cancer cell line (MCF-7), human neuroblastoma (SH-SY5Y), human prostate cancer cells (PC3), and murine Ehrlich ascites cancer cells and mouse 3T3-L1 fibroblasts were obtained from American Type Culture Collection (Rockville, Md., USA). The cancer cells were cultured in RPMI 1640 containing 10% fetal calf serum. Cultures were maintained at 37° C. in a humidified atmosphere of 5% CO2.

MiaPaca2 = experiment: Cell proliferation / cell death assay, MiaPaca2; assay type: cell-based, human; settings: MiaPaca2, 10-100 μM
Experimental: as §1
(§2) Cell proliferation assays were performed with the CellTiter 96 AQueous One Solution Cell Proliferation Assay kit according to the manufacturer's instructions (Promega, Madison, Wis., USA). Briefly, 5×10^3 cells/well in medium were placed onto 96-well plates. IGs were added to cellular cultures at final concentrations of 0, 1, 10, and 100 μM. Cultures were incubated for 3 days or 7 days and then added to 20 μL/well of CellTiter 96 AQueous One Solution Reagent, which contains a tetrazolium compound, 3-(4,5-dimethylthiazol-2-yl)-5-(3-carboxymethoxyphenyl)-2-(4-sulfophenyl)-2H-tetrazolium, an inner salt; MTS was added to the culture medium. After incubating the plate for 1 h in a CO2 incubator, absorbance at 490 nm was recorded with a 96-well plate reader.

BXPC3 = experiment: Cell proliferation / cell death assay, BXPC3; assay type: cell-based, human; settings: BXPC3, 10-100 μM
Experimental: as §1, §2

AGS = experiment: Cell proliferation / cell death assay, AGS; assay type: cell-based, human; settings: 10-100 μM
Experimental: as §1, §2

[1] = system: human mammary cancer cells (MCF-7); experiment: Cell proliferation / cell death assay, MCF-7; assay type: cell-based; settings: MCF-7, 10-100 μM
Experimental: as §1, §2

[2] = system: murine Ehrlich ascites cancer cells; experiment: Cell proliferation / cell death assay, Ehrlich ascites cancer cells; assay type: cell-based; settings: 10-100 μM
Experimental: as §1, §2

[3] = system: human umbilical vein endothelial cells (HUVEC); experiment: Cell death of human umbilical vein endothelial cells; assay type: cell-based; settings: in 1 hour
[4] = system: Ehrlich ascites cancer cells; experiment: Animal survival analysis, ddY mice bearing Ehrlich ascites cancer cells; assay type: in vivo; settings: daily intraperitoneal for 7 days
Experimental: Male ddy mice weighing 20-30 g obtained from and maintained on a standard diet and water ad libitum. Ehrlich ascites cancer cells (5×10^6 cells) were injected intraperitoneal to the mice. After 7 days later, the mice were subjected to daily intraperitoneal injection of IG1 or IG1 plus alkyl-acyl-phosphatidic acids (AAPAs) for additional 7 days. The endpoint of experiment was determined by spontaneous death of animals.

native rat adipocytes = experiment: Lipogenesis in native rat adipocytes; assay type: cell-based; settings: rat isolated adipocytes
Experimental: Adipocytes were isolated from epididymal fat pads dissected from freshly sacrificed male Long-Evans rats and incorporation of [6-^3H]-glucose into triglycerides in response to treatment with inositol glycans or insulin was measured as previously described (Chakraborty, N. and M. d'Alarcao, Bioorganic & Medicinal Chemistry 13 (2005) 6732-6741).

[5] = system: C57B/6 mice on high-fat diets; experiment: Intravenous administration of IG1, mice on high-fat diets; assay type: in vivo
Experimental: Male C57BL/6 mice were housed individually and given free access to a standard diet (65% carbohydrate, 4% fat, and 24% protein) or a high-fat diet (Quick Fat; 60.2% carbohydrate, 15.3% fat, and 24.5% protein; Clea Japan, Tokyo, Japan), starting at 5 weeks of age, for 5 weeks. Db/db mice also were housed individually and given free access to a standard diet. C57BL/6 mice at 5 weeks of age, were received a single dose of 75 μg/g body weight streptozotoxin (STZ). 7 days after injections, the mice, whose fasting plasma glucose concentrations were over 400 mg/dl, were used as STZ-diabetic mice. […]
Frozen livers were homogenized, and triglycerides were extracted with CHCl3:CH3OH (2:1, vol:vol), dried and resuspended in 2-propanol (17). Triglyceride contents were measured using Lipidos liquid (TOYOBO, Osaka, Japan). […] Glycogen content was determined by the phenol-sulfuric acid spectrophotometric method at 490 nm (18) and expressed as micrograms of glycogen per milligram of liver.
Blood glucose was assayed with Glucose Ace (Sanwa Kagaku Kenkyusho, Nagoya, Japan). Serum insulin and leptin were determined with ELISA kits (Morinaga Institute of Biological Science, Yokohama, Japan). Serum adiponectin and tumor necrosis factor-α (TNF-α) concentrations were measured with an ELISA kit (Ohtsuka Pharmaceutical, Tokyo, Japan) and a TNF-α assay kit (Amersham Biosciences, Uppsala, Sweden), respectively. […]

ob/ob obese mice = experiment: IG-1 treatment for 28 days, ob/ob obese mice; assay type: in vivo; settings: IG1 1 mg, Mean ± SD (n = 6)
Experimental: Blood glucose was assayed with Glucose Ace (Sanwa Kagaku Kenkyusho, Nagoya, Japan). Serum insulin and leptin were determined with ELISA kits (Morinaga Institute of Biological Science, Yokohama, Japan). Serum adiponectin and tumor necrosis factor-α (TNF-α) concentrations were measured with an ELISA kit (Ohtsuka Pharmaceutical, Tokyo, Japan) and a TNF-α assay kit (Amersham Biosciences, Uppsala, Sweden), respectively. Serum total cholesterol, triglyceride, and FFA concentrations were determined with a Cholescolor liquid, Lipidos liquid (TOYOBO, Osaka, Japan), and NEFA C (Wako Pure Chemical, Osaka, Japan) kits, respectively.

For `CCCCCCCCCCCCCCCC(=O)O[C@@H]1C(O)C(O)[C@H](O)C(O[C@H]2OC(CO)[C@@H](O)[C@H](O)C2N)C1O` (stereo in doubt) [IG1, 2-Amino-2-deoxy-α-D-glucopyranosyl-(1→6)-2-palmitoyl-D-myo-inositol], which “lactate production (aerobic glycolysis)” value (Panc-1 cells) is on record?
Its value is “inhibits lactate production”.

And the “rapid cancer cell death” value (MiaPaca2)?
The value was “rapid cancer cell death was demonstrated”.

What about the “rapid cancer cell death” value (BXPC3) of the same compound?
Its value is “rapid cancer cell death was demonstrated”.

And the “rapid cancer cell death” value (AGS)?
Its value is “rapid cancer cell death was demonstrated”.

And the “rapid cancer cell death” value [1]?
The value was “rapid cancer cell death was demonstrated”.

And the “rapid cancer cell death” value [2]?
The value was “rapid cancer cell death was demonstrated”.

What about the “cell death of HUVEC” value [3] of the same compound?
The value was “induces rapid cell death”.

And the survival times [4]?
Its survival times is “did not affect the survival times”.

And the EC50 (native rat adipocytes; Adipocyte, fit to receptor binding model, read-out: EC50 value for stimulation of lipogenesis)?
The EC50 was 14 µM.

And the Emax (native rat adipocytes; Adipocyte, stimulation of lipogenesis, read-out: Amax (maximal effect))?
The Emax was 24%.

And the stimulation of lipogenesis (native rat adipocytes; concentration series)?
The stimulation of lipogenesis was “stimulated lipogenesis”.

And the plasma glucose concentrations ([5]; intravenous, 0.3-1 mg per mice, 90-300 min after administration)?
Its plasma glucose concentrations is “significantly reduced plasma glucose concentrations”.

And the “hepatic and muscular glycogen contents” value ([5]; mice on high-fat diets, data not shown)?
Its value is “significantly increases hepatic and muscular glycogen contents”.

And the Adiponectin (ob/ob obese mice)?
The Adiponectin was 47.6 ± 4.6 µg/mL.

And the Body weight (ob/ob obese mice)?
The Body weight was 40.1 ± 3.2 g.

What about the Fasting plasma glucose (ob/ob obese mice) of the same compound?
Its Fasting plasma glucose is 66.1 ± 8.3 mg/dL.

What about the Fasting plasma insulin (ob/ob obese mice) of the same compound?
Its Fasting plasma insulin is 16.3 ± 4.3 ng/mL.

What about the Food intake (ob/ob obese mice) of the same compound?
Its Food intake is 4.53 ± 0.74 g/day.

What about the NEFA (ob/ob obese mice) of the same compound?
The NEFA was 0.88 ± 0.34 mEq/l.

And the TNF-1α (ob/ob obese mice)?
Its TNF-1α is 34.7 ± 6.7 pg/mL.

And the Total cholesterol (ob/ob obese mice)?
The Total cholesterol was 172.4 ± 13.6 mg/dL.

And the Triglyceride (ob/ob obese mice)?
The Triglyceride was 31.2 ± 5.3 mg/dL.
